The results in this text go back to ChEMBL document CHEMBL2010747, “Synthesis of [12]aneN3-dipeptide conjugates as metal-free DNA nucleases” (Bioorg Med Chem Lett, 2012).

Common to all, as to type: nucleic-acid assay
Test [1] deals with Nucleic Acid. The test is described as follows: Induction of Escherichia coli pUC18 DNA cleavage assessed as formation of open circular DNA at 200 uM after 48 hrs by agarose gel electrophoresis in presence of EDTA.
The subject of test [2] is Nucleic Acid. In words: Induction of Escherichia coli pUC18 DNA cleavage assessed as formation of open circular DNA at 200 uM from 6 to 48 hrs by agarose gel electrophoresis.
In test [3] the test system is Nucleic Acid. In words: Induction of Escherichia coli pUC18 DNA cleavage assessed as formation of linear DNA at 50 to 500 uM after 48 hrs by agarose gel electrophoresis.
For test [4], the system named is Nucleic Acid. In words: Induction of Escherichia coli pUC18 DNA cleavage assessed as formation of open circular DNA at 200 uM after 48 hrs by agarose gel electrophoresis in presence of singlet oxygen radical scavenger NaN3.
The test system of test [5] is Nucleic Acid. In words: Induction of Escherichia coli pUC18 DNA cleavage assessed as formation of open circular DNA at 200 uM after 48 hrs by agarose gel electrophoresis in presence of hydroxyl radical scavenger t-BuOH.
In test [6] the test system is Nucleic Acid. In words: Induction of Escherichia coli pUC18 DNA cleavage assessed as formation of open circular DNA at 200 uM after 48 hrs by agarose gel electrophoresis in presence of hydroxyl radical scavenger DMSO.
Test [7] concerns Nucleic Acid. In words: Displacement of ethidium bromide from calf thymus DNA after 1 min by fluorimetry. The settings on record: Bos taurus.
Test [8] relates to Nucleic Acid. The test is described as follows: Induction of Escherichia coli pUC18 DNA cleavage assessed as formation of open circular DNA at 200 uM after 48 hrs by agarose gel electrophoresis.
For test [9], the system named is Nucleic Acid. The test is described as follows: Induction of Escherichia coli pUC18 DNA cleavage assessed as formation of open circular DNA at 200 uM after 48 hrs by agarose gel electrophoresis in presence of […].
Test [10] deals with Nucleic Acid. The test is described as follows: Induction of Escherichia coli pUC18 DNA cleavage assessed as formation of linear DNA at 200 uM after 48 hrs by agarose gel electrophoresis.

Active and inactive are the calls of the source. No cut-off for these calls is given here. Peptide text beside a SMILES is read from it. * marks the point of attachment. Fmoc = O=C(OCC1c2ccccc2-c2ccccc21)*

As to `COC(=O)[C@H](CCCCN)NC(=O)[C@H](CC(C)C)NC(=O)CN1CCCNCCCNCCC1`, the outcome in [1], in [2], in [3], in test [4], in [5] and in test [6] was Active. For the same compound, the outcome in [9] was Active. This compound also returned a Kapp in test [7] of 7.1 ×10⁴ /M. Besides, in test [8], the Activity was found to be 50%.
Consider `COC(=O)CNC(=O)[C@@H](N)CC(C)C` (H-Leu-Gly-OMe), for which, in test [8], the result was inactive.
`COC(=O)CNC(=O)CNC(=O)CN1CCCNCCCNCCC1` displayed a Kapp in test [7] of 4.2 ×10⁴ /M. For the same compound, the Activity in [8] turned out to be 50%.
With `COC(=O)CNC(=O)[C@H](CC(C)C)NC(=O)CN1CCCNCCCNCCC1`, in [7], the Kapp is 4 ×10⁴ /M. For the same compound, in [8], the Activity is 50%.
The corresponding values for `COC(=O)[C@H](CO)NC(=O)[C@H](CC(C)C)NC(=O)CN1CCCNCCCNCCC1` are 7.2 ×10⁴ /M and 50%.
Consider `COC(=O)[C@H](Cc1c[nH]c2ccccc12)NC(=O)[C@@H](N)CC(C)C`, for which the outcome in test [8] was inactive.
Same read-out and setting: under `COC(=O)[C@H](Cc1ccc(O)cc1)NC(=O)[C@@H](N)CC(C)C` (H-Leu-Tyr-OMe) stands “inactive”.
In test [7], `COC(=O)[C@H](Cc1c[nH]c2ccccc12)NC(=O)[C@H](CC(C)C)NC(=O)CN1CCCNCCCNCCC1` yielded a Kapp of 4.7 ×10⁴ /M. The Activity in test [8] came to 50%.
In the case of `COC(=O)[C@H](CO)NC(=O)[C@@H](N)CC(C)C` (H-Leu-Ser-OMe), the outcome in test [8] was inactive.
As to `COC(=O)[C@H](C)NC(=O)[C@@H](N)CC(C)C` (H-Leu-Ala-OMe), in test [8], the outcome was inactive.
In turn, `COC(=O)[C@H](Cc1ccc(O)cc1)NC(=O)[C@H](CC(C)C)NC(=O)CN1CCCNCCCNCCC1` registered a Kapp in test [7] of 6.4 ×10⁴ /M. In addition, the Activity in test [8] was 50%.
For the compound `COC(=O)CNC(=O)CN`, the outcome in test [8] was inactive.
Same read-out and setting: the entry for `COC(=O)[C@H](Cc1ccccc1)NC(=O)[C@@H](N)CC(C)C` (H-Leu-Phe-OMe) is “inactive”.
For the compound `COC(=O)[C@H](C)NC(=O)[C@H](CC(C)C)NC(=O)CN1CCCNCCCNCCC1`, the result in test [1], in test [2], in test [3], in test [4], in [5] and in [6] was Active. Also, the result in test [9] was Active. In addition, the outcome in [10] was inactive. In addition, the Kapp in [7] was found to be 5.9 ×10⁴ /M. Also, the Activity in test [8] was 50%.
`COC(=O)[C@H](Cc1ccccc1)NC(=O)[C@H](CC(C)C)NC(=O)CN1CCCNCCCNCCC1` had a Kapp in [7] of 6.6 ×10⁴ /M. In test [8], the Activity was determined as 50%.
On to `COC(=O)[C@H](CCCCNC(=O)OCC1c2ccccc2-c2ccccc21)NC(=O)[C@@H](N)CC(C)C` (H-Leu-Lys(Fmoc)-OMe), for which, in test [8], the outcome was inactive.
